In one data set the target is T1, IRAK4 (Homo sapiens, UniProt Q9NWZ3).
T1 sequence (Q9NWZ3 1-460): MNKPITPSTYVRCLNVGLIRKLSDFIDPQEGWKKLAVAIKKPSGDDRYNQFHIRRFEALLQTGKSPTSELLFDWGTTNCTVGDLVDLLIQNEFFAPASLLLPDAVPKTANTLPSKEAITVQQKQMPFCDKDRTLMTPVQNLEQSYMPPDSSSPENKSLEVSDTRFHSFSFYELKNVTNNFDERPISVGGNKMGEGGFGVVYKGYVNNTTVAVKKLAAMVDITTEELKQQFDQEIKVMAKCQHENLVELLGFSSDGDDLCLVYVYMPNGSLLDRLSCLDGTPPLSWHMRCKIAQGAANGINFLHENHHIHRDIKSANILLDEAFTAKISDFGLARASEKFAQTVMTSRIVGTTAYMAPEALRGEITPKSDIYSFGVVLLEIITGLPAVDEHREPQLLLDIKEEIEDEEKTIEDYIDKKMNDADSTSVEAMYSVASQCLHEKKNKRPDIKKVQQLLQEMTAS
As to the kind of experiment: Hibit fluorescence detection of proteolysis (IRAK4-HiBiT in HEK293T cells). The arrangement: host or cells: HEK293T (ATCC). The format is cell-based. The procedure, abridged:
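Degradation read-out: luminescence from lytic HiBiT detection (15 min, room temperature) after 24 h compound exposure (37 °C, 5% CO2) of HEK293T cells transiently expressing IRAK4 fused to a HiBiT tag. Data fitted to a bell-shaped four-parameter model giving two EC50 values.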
(HiBiT is a short tag that completes a luciferase, so light tracks the accessible tagged protein.)

The target of another data set is T2, hERG ion channel (Homo sapiens, UniProt Q12809).
T2 construct: host or cells: HEK293
T2 sequence (Q12809 whole entry): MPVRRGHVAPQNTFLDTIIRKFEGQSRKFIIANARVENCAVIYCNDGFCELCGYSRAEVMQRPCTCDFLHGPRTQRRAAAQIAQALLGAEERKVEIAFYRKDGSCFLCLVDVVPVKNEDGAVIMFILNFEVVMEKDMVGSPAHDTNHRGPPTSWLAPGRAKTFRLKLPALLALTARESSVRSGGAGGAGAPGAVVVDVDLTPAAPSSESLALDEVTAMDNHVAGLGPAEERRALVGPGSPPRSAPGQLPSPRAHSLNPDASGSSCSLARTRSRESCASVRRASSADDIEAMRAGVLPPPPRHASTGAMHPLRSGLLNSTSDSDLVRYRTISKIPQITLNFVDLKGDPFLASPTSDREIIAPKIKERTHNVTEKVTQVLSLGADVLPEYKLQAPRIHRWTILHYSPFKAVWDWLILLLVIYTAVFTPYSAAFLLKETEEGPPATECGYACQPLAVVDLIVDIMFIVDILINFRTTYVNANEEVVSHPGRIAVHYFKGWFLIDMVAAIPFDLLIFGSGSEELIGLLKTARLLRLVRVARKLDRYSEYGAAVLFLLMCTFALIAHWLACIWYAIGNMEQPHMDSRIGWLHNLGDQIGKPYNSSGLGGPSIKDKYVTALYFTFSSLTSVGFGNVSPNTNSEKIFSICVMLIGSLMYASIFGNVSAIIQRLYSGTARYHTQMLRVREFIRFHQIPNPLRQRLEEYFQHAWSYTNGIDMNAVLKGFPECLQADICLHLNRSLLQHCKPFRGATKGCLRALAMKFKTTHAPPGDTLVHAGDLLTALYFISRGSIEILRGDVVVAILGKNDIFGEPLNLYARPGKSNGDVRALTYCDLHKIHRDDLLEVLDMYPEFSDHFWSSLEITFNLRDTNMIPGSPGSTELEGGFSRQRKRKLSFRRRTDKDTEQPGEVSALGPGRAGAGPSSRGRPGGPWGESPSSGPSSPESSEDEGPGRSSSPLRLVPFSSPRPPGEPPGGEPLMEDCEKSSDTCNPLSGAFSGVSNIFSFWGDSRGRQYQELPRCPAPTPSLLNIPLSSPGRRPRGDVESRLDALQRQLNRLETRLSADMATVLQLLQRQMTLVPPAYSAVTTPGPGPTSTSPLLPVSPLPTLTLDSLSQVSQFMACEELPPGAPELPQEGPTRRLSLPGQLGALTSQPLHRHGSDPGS
As to the kind of experiment: Inhibitory effect on hERG ion channels (manual patch clamp). The data set is classed as cell-based. To be noted: HEK293 cells stably expressing hERG channels, read-out: hERG (IC50, manupatch). On the procedure: In this experiment, the inhibitory effect of the compound on the hERG ion channel was detected by a manual patch clamp electrophysiological method, and the cardiac safety was evaluated based on the single concentration inhibition rate or IC50 of the compound.
The cells used in this experiment were HEK293 cell lines transfected with hERG cDNA and stably expressing hERG channels (#60187, provided by BPS, P3-P23 generations were used for experimental research). The cells was cultured in a medium containing the following components: MEM medium, 10% (v/v) inactivated fetal bovine serum, 1 mM sodium pyruvate, 500 µg geneticin, 0.1 mM non-essential amino acids, 100 U penicillin-streptomycin. HEK293 hERG cells were grown in a culture flask containing the above culture solution and cultured in an incubator at 37°C and 5% CO2. […]
A manual patch clamp system (HEKA EPC-10 signal amplifier and digital conversion system, purchased from HEKA Electronics, Germany) was used to record whole-cell currents in electrophysiological experiments. […] After the hERG current recorded in the above steps reached stabilization under the continuous perfusion of extracellular solution in the recording chamber, different concentrations of the compound to be tested could be perfused until the inhibitory effect of the drug on the hERG current reached a stable state. […]
In general terms: hERG is a cardiac potassium channel; its block is linked to QT prolongation.

The term IC50 denotes the concentration that gives 50% inhibition.

Bounds are passed on as bounds.

For the compound `Cn1c(=O)n(C2CCC(=O)NC2=O)c2cccc(N3CCC(N4CCN(C[C@H]5CC[C@H](n6cc(-n7cc(-c8cnn9ccc(N%10CCC[C@H](O)C%10)nc89)nn7)c(C(F)F)n6)CC5)CC4)CC3)c21` (stereo partly drawn) [Example 146], at IRAK4 (HEK-293T), the Dmax was > 80%. Besides, the DC50 at IRAK4 (IRAK4-HiBiT, HEK293T cells, 24 h) is < 0.0005 µM. At hERG ion channel, the IC50 is 7.06 µM.

These data come from patent EP4759807A1, “PROTEOLYSIS TARGETING CHIMERA COMPOUND FOR DEGRADING IRAK4 AND USE THEREOF” (Shenzhen Zhongge Biological Technology Co., Ltd., priority 2023, dated 2025).
